Laboratory results published in ChEMBL document CHEMBL4420080, “Inhibitors of sox18 protein activity for treating angiogenesis- and/or lymphangiogenesis-related diseases” (2018).
Calls of active or inactive are those of the source. No cut-off for these calls is given here.

How the values were obtained:
[1] = Cytotoxicity in human HepG2 cells assessed as reduction in cell viability incubated for 24 hrs by Alamar blue dye based assay
[2] = Critical micellar concentration of the compound; format: physicochemical
[3] = Cytotoxicity in African green monkey COS7 cells assessed as reduction in cell viability incubated for 24 hrs by Alamar blue dye based assay; parameters: species or system COS-7; conditions: chlorocebus aethiops
[4] = target: T1, Transcription factor SOX-18 (Mus musculus) (UniProt P43680); assay: Competitive binding affinity to full-length mouse SOX18 expressed in Sf9 cells assessed as reduction in SOX1 8- DNA binding using FAM-labelled Prox1 -DNA element at 1 to 1000 uM incubated for 5 mins in dark at room temperature, 10 mins at 37 degC and 30 mins at room temperature by fluorescence polarization assay
T1 sequence (whole entry): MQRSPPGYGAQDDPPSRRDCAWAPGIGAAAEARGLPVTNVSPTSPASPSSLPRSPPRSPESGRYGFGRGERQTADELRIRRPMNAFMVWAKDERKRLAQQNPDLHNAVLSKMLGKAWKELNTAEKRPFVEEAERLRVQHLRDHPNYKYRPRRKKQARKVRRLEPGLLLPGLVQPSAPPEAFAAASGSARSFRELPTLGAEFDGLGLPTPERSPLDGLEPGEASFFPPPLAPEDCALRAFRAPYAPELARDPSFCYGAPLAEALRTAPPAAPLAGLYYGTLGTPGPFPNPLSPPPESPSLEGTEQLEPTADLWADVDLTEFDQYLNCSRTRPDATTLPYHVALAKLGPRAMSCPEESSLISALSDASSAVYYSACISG

4T1.2 = assay: Antitumor activity against mouse 4T1.2 cells implanted in BALB/c mouse assessed as median disease latency time at 25 mg/kg/day for 10 days (Rvb =33 days); format: functional
[5] = target: T1, Transcription factor SOX-18 (Mus musculus); assay: (§1) Competitive binding affinity to full-length mouse SOX18 expressed in Sf9 cells assessed as reduction in SOX1 8- DNA binding by measuring FP-bound fraction at 50 uM using FAM-labelled Prox1 -DNA element incubated for 5 mins in dark at room temperature, 10 mins at 37 degC and 30 mins at room temperature by fluorescence polarization assay relative to control; parameters: scale not given: the % may be the effect or the level left
[6] = target: T1, Transcription factor SOX-18 (Mus musculus); assay: as §1, with “200” for “50”; parameters: scale not given: the % may be the effect or the level left
[7] = Cytotoxicity in HEK293 cells assessed as reduction in cell viability incubated for 24 hrs by Alamar blue dye based assay; conditions: human

Compound	CMC [2] [µM]	CC50 at 24 h [3] [µM]	other results
Cc1cc(O)c(C(=O)O)c(CCc2ccc3ccccc3c2)c1			CC50 at 24 h [1]: 377 µM
COc1cccc(CCCCCCc2ccccc2)c1C(=O)O	> 1000	> 200	
Cc1ccc(Cl)c(Nc2ccccc2C(=O)O)c1Cl			Activity [4]: Active
CC(=O)Oc1ccccc1C(=O)O [ASPIRIN]			Time (4T1.2): 44 days
COC(=O)c1c(O)cccc1CCc1ccc2ccccc2c1	20		
O=C(O)c1c(O)cccc1COCCc1ccccc1		> 200	
COc1cccc(C=Cc2ccc3ccccc3c2)c1C(=O)O (mixture of isomers)			CC50 at 24 h [1]: > 100 µM
COc1ccc(OCC(=O)c2ccc(O)cc2O)cc1	> 1000	> 200	
CCN(CC)C(=O)c1c(CCc2ccc3ccccc3c2)cccc1OC			Activity [5]: 100%; Activity [6]: 117%; CC50 at 24 h [7]: 62.6 µM; CC50 at 24 h [1]: 38.5 µM
CCCCCCCCCc1cccc(OC)c1C(=O)OC	20		
O=C1N=C(N2CCCC2)S/C1=C/c1ccc(O)cc1O	> 1000	> 200	
COc1cc(O)c(C(=O)O)c(C=Cc2ccc3ccccc3c2)c1 (mixture of isomers)			Activity [6]: 19.8%
CC(C)CCCC(C)CCCCc1cccc(O)c1C(=O)O (stereo unspecified)	30		
CCN(CC)C(=O)c1c(CCc2ccc3ccccc3c2)cc(OC)cc1OC			Activity [5]: 97.3%; Activity [6]: 107%; CC50 at 24 h [7]: 85.8 µM; CC50 at 24 h [1]: 35.8 µM
Cc1cccc2c(=O)c3c(O)cc(O)cc3oc12	> 1000	> 200	
CCCCCCCCCc1cccc(O)c1C(=O)OC	20		
O=C(O)c1ccccc1Nc1cccc(C(F)(F)F)c1			Activity [4]: Active
O=C(COc1ccc2ccccc2c1)c1ccc(O)cc1O	> 1000	98.6	
O=C(O)c1cccnc1Nc1cccc(C(F)(F)F)c1			Activity [4]: Active
COC(=O)c1c(O)cccc1CCCCC(C)CCCC(C)C (stereo unspecified)	20		
